Assay: Storage of compositions with/without nitrogen-gassing and ascorbic acid, assay and impurities
Type: physicochemical
Settings: for Assay / Impurities: phosphate buffer
Description: A possible beneficial effect of nitrogen-gassing during manufacturing and storage was assessed. Selected compositions were manufactured by dissolution of API via stirring for 24 h and stored after treatment with/without nitrogen at 25° C. or 6° C. for up to 28 days.
The manufactured batches consisted of phosphate buffer and vitamin E TPGS and were compared to compositions containing ascorbic acid 1%, additionally. API was used at 0.01 wt.-%, 0.02 wt.-% or 0.04 w.-%. The compositions were saturated with API, where 10 mg, 20 mg or 40 mg were dissolved in 100 g buffer containing 0.5 wt.-%, wt.-1% or 2 wt.-% vitamin E TPGS, respectively. The compositions were transferred into polystyrene bottles and stored at 25° C. or 6° C. A part of the compositions was treated with nitrogen during manufacturing and gassed with nitrogen prior to sealing (see FIG. 18). The compositions were tested for assay and purity of API after manufacturing, as well as after 7, 14 and 28 days.

[1] = vitamin E TPGS 1%, no Asc., N2 +, API 0.02%, 25° C., t = 28 d
[2] = vitamin E TPGS 1%, no Asc., N2 +, API 0.02%, t = 0
[3] = vitamin E TPGS 1%, no Asc., N2 −, API 0.02%, 6° C., t = 7 d
[4] = vitamin E TPGS 1%, no Asc., N2 −, API 0.02%, 6° C., t = 14 d
[5] = vitamin E TPGS 1%, no Asc., N2 −, API 0.02%, 6° C., t = 28 d
[6] = vitamin E TPGS 1%, no Asc., N2 −, API 0.02%, 25° C., t = 7 d
[7] = vitamin E TPGS 1%, no Asc., N2 −, API 0.02%, 25° C., t = 14 d
[8] = vitamin E TPGS 1%, no Asc., N2 −, API 0.02%, 25° C., t = 28 d
[9] = vitamin E TPGS 1%, no Asc., N2 −, API 0.02%, t = 0
[10] = vitamin E TPGS 2%, Asc. 1%, N2 +, API 0.04%, 6° C., t = 7 d
[11] = vitamin E TPGS 2%, Asc. 1%, N2 +, API 0.04%, 6° C., t = 14 d
[12] = vitamin E TPGS 2%, Asc. 1%, N2 +, API 0.04%, 6° C., t = 28 d
[13] = vitamin E TPGS 2%, Asc. 1%, N2 +, API 0.04%, 25° C., t = 7 d
[14] = vitamin E TPGS 2%, Asc. 1%, N2 +, API 0.04%, 25° C., t = 14 d
[15] = vitamin E TPGS 2%, Asc. 1%, N2 +, API 0.04%, 25° C., t = 28 d
[16] = vitamin E TPGS 2%, Asc. 1%, N2 +, API 0.04%, t = 0
[17] = vitamin E TPGS 2%, Asc. 1%, N2 −, API 0.04%, 6° C., t = 7 d
[18] = vitamin E TPGS 2%, Asc. 1%, N2 −, API 0.04%, 6° C., t = 14 d
[19] = vitamin E TPGS 2%, Asc. 1%, N2 −, API 0.04%, 6° C., t = 28 d
[20] = vitamin E TPGS 2%, Asc. 1%, N2 −, API 0.04%, 25° C., t = 7 d
[21] = vitamin E TPGS 2%, Asc. 1%, N2 −, API 0.04%, 25° C., t = 14 d
[22] = vitamin E TPGS 2%, Asc. 1%, N2 −, API 0.04%, 25° C., t = 28 d
[23] = vitamin E TPGS 2%, Asc. 1%, N2 −, API 0.04%, t = 0
[24] = vitamin E TPGS 2%, no Asc., N2 +, API 0.04%, 6° C., t = 7 d
[25] = vitamin E TPGS 2%, no Asc., N2 +, API 0.04%, 6° C., t = 14 d
[26] = vitamin E TPGS 2%, no Asc., N2 +, API 0.04%, 6° C., t = 28 d
[27] = vitamin E TPGS 2%, no Asc., N2 +, API 0.04%, 25° C., t = 7 d
[28] = vitamin E TPGS 2%, no Asc., N2 +, API 0.04%, 25° C., t = 14 d
[29] = vitamin E TPGS 2%, no Asc., N2 +, API 0.04%, 25° C., t = 28 d
[30] = vitamin E TPGS 2%, no Asc., N2 +, API 0.04%, t = 0
[31] = vitamin E TPGS 2%, no Asc., N2 −, API 0.04%, 6° C., t = 7 d
[32] = vitamin E TPGS 2%, no Asc., N2 −, API 0.04%, 6° C., t = 14 d
[33] = vitamin E TPGS 2%, no Asc., N2 −, API 0.04%, 6° C., t = 28 d
[34] = vitamin E TPGS 2%, no Asc., N2 −, API 0.04%, 25° C., t = 7 d
[35] = vitamin E TPGS 2%, no Asc., N2 −, API 0.04%, 25° C., t = 14 d
[36] = vitamin E TPGS 2%, no Asc., N2 −, API 0.04%, 25° C., t = 28 d
[37] = vitamin E TPGS 2%, no Asc., N2 −, API 0.04%, t = 0

## CN(C)[C@]1(c2cccc(F)c2)CC[C@]2(CC1)c1[nH]c3ccccc3c1CCN2C(=O)/C=C/c1ccccc1 [API, cis-(E)-4-(3-fluorophenyl)-2′,3′,4′,9′-tetrahydro-N,N-dimethyl-2′-(1-oxo-3-phenyl-2-propenyl)-spiro[cyclohexane-1,1′[1H]-pyrido[3,4-b]indol]-4-amine]
[1]
  Assay: 93.95 µg/mL
  Impurities: 0.85 % (a/a)
[2]
  Assay: 93.15 µg/mL
  Impurities: 0.63 % (a/a)
[3]
  Assay: 92.96 µg/mL
  Impurities: 0.66 % (a/a)
[4]
  Assay: 93.12 µg/mL
  Impurities: 0.82 % (a/a)
[5]
  Assay: 93.21 µg/mL
  Impurities: 1.15 % (a/a)
[6]
  Assay: 93.12 µg/mL
  Impurities: 0.74 % (a/a)
[7]
  Assay: 93.69 µg/mL
  Impurities: 1.01 % (a/a)
[8]
  Assay: 93.67 µg/mL
  Impurities: 0.80 % (a/a)
[9]
  Assay: 92.32 µg/mL
  Impurities: 0.63 % (a/a)
[10]
  Assay: 218.73 µg/mL
  Impurities: 0.72 % (a/a)
[11]
  Assay: 218.92 µg/mL
  Impurities: 0.95 % (a/a)
[12]
  Assay: 219.23 µg/mL
  Impurities: 0.68 % (a/a)
[13]
  Assay: 209.88 µg/mL
  Impurities: 1.22 % (a/a)
[14]
  Assay: 210.66 µg/mL
  Impurities: 1.08 % (a/a)
[15]
  Assay: 190.68 µg/mL
  Impurities: 1.54 % (a/a)
[16]
  Assay: 217.91 µg/mL
  Impurities: 0.62 % (a/a)
[17]
  Assay: 222.15 µg/mL
  Impurities: 0.75 % (a/a)
[18]
  Assay: 226.12 µg/mL
  Impurities: 0.85 % (a/a)
[19]
  Assay: 225.09 µg/mL
  Impurities: 0.79 % (a/a)
[20]
  Assay: 222.30 µg/mL
  Impurities: 0.92 % (a/a)
[21]
  Assay: 213.85 µg/mL
  Impurities: 1.58 % (a/a)
[22]
  Assay: 197.06 µg/mL
  Impurities: 1.67 % (a/a)
[23]
  Assay: 218.96 µg/mL
  Impurities: 0.63 % (a/a)
[24]
  Assay: 216.81 µg/mL
  Impurities: 0.53 % (a/a)
[25]
  Assay: 216.54 µg/mL
  Impurities: 0.71 % (a/a)
[26]
  Assay: 216.93 µg/mL
  Impurities: 0.46 % (a/a)
[27]
  Assay: 215.81 µg/mL
  Impurities: 0.57 % (a/a)
[28]
  Assay: 215.34 µg/mL
  Impurities: 0.82 % (a/a)
[29]
  Assay: 217.45 µg/mL
  Impurities: 0.72 % (a/a)
[30]
  Assay: 214.85 µg/mL
  Impurities: 0.58 % (a/a)
[31]
  Assay: 214.61 µg/mL
  Impurities: 0.37 % (a/a)
[32]
  Assay: 214.30 µg/mL
  Impurities: 0.72 % (a/a)
[33]
  Assay: 214.68 µg/mL
  Impurities: 0.49 % (a/a)
[34]
  Assay: 214.19 µg/mL
  Impurities: 0.54 % (a/a)
[35]
  Assay: 213.44 µg/mL
  Impurities: 0.80 % (a/a)
[36]
  Assay: 215.45 µg/mL
  Impurities: 0.67 % (a/a)
[37]
  Assay: 212.92 µg/mL
  Impurities: 0.60 % (a/a)
Storage temperature of 6° C., all compositions, up to 28 days
  sum of all impurities: below 1 % (a/a)

Reference: patent US20180243273A1, “Composition for Intravesical Administration for Treating Bladder Pain” (priority 2017, published 2018)
